From ChEMBL document CHEMBL3044917, “Multicomponent one-pot synthesis of 2-naphthol derivatives and evaluation of their anticancer activity” (Med Chem Res, 2012) come the findings set out here.

In one experiment the test system is A549. As to the kind of experiment: Cytotoxicity against Homo sapiens (human) A549 cells after 48 hr by MTT assay. As to conditions: A549, 48 h. The experiment is classed as functional, cell-based.
Broadly, the IC50 is the point on the concentration scale where inhibition reaches its midpoint. Read a high IC50 as weaker potency. `COc1cccc2c1C(=O)c1c(O)c3c(c(O)c1C2=O)C[C@@](O)(C(=O)CO)C[C@@H]3O[C@H]1C[C@H](N)[C@H](O)[C@H](C)O1` [DOXORUBICIN] returned an IC50 of under 1 µM.
On the same count and under the same terms, in the case of `C=CCC(c1cccc(F)c1)c1c(O)ccc2ccccc12` (stereo unspecified) it was 8.6 µM.
Still for that read-out and setting: in the case of `C=CCC(c1ccc(F)cc1)c1c(O)ccc2ccccc12` (stereo unspecified) it was 1.6 µM; in that of `C=CCC(c1ccc(Cl)cc1)c1c(O)ccc2ccccc12` (stereo unspecified), 9.6 µM; in that of `C=CCC(c1ccccc1)c1c(O)ccc2ccccc12` (stereo unspecified), 59 µM.
On to `C=CCC(c1ccc(C(C)C)cc1)c1c(O)ccc2ccccc12` (stereo unspecified), for which the IC50 came out at 13.5 µM.
Compound `C=CCC(c1ccc(C)cc1)c1c(O)ccc2ccccc12` (stereo unspecified) came in with an IC50 of 6.8 µM. Compared with the last compound, the IC50 is about 2-fold lower.
The same measure, in the same setting: in the case of `C=CCC(c1ccccc1F)c1c(O)ccc2ccccc12` (stereo unspecified) it was 7.8 µM.

In a further experiment the test system is HeLa. The experiment is described as follows: Cytotoxicity against Homo sapiens (human) HeLa cells after 48 hr by MTT assay. The experiment is classed as functional, cell-based.
Conditions: not given
On the technique in general: Formazan colour is commonly taken as a measure of viable cells.
As to `COc1cccc2c1C(=O)c1c(O)c3c(c(O)c1C2=O)C[C@@](O)(C(=O)CO)C[C@@H]3O[C@H]1C[C@H](N)[C@H](O)[C@H](C)O1` [DOXORUBICIN], the IC50 was under 1 µM.
The same measure, in the same setting: in the case of `C=CCC(c1cccc(F)c1)c1c(O)ccc2ccccc12` (stereo unspecified) it was 8.8 µM.
Still for that read-out and setting: in the case of `C=CCC(c1ccc(F)cc1)c1c(O)ccc2ccccc12` (stereo unspecified) it was under 1 µM.
In turn, `C=CCC(c1ccc(Cl)cc1)c1c(O)ccc2ccccc12` (stereo unspecified) gave an IC50 of 6.4 µM.
The same measure, in the same setting: for `C=CCC(c1ccccc1)c1c(O)ccc2ccccc12` (stereo unspecified) the value was 76 µM.
The same measure, in the same setting: in the case of `C=CCC(c1ccc(C(C)C)cc1)c1c(O)ccc2ccccc12` (stereo unspecified) it was 12.5 µM; in that of `C=CCC(c1ccc(C)cc1)c1c(O)ccc2ccccc12` (stereo unspecified), 6.2 µM.
Take `C=CCC(c1ccccc1F)c1c(O)ccc2ccccc12` (stereo unspecified): inhibition was half-maximal at 6.8 µM (IC50).

A further experiment has as its system HepG2. The experiment is described as follows: Cytotoxicity against Homo sapiens (human) HepG2 cells after 48 hr by MTT assay. The format is functional, cell-based. As to conditions: HepG2, 48 h.
The compound `C=CCC(c1cccc(F)c1)c1c(O)ccc2ccccc12` (stereo unspecified) showed an IC50 of 6.5 µM.
Same read-out and setting: for `C=CCC(c1ccc(F)cc1)c1c(O)ccc2ccccc12` (stereo unspecified) the value was 1.2 µM; for `C=CCC(c1ccc(Cl)cc1)c1c(O)ccc2ccccc12` (stereo unspecified), 7.4 µM.
On the same count and under the same terms, for `C=CCC(c1ccccc1)c1c(O)ccc2ccccc12` (stereo unspecified) the value was 53 µM; for `C=CCC(c1ccc(C(C)C)cc1)c1c(O)ccc2ccccc12` (stereo unspecified), 15 µM; for `C=CCC(c1ccc(C)cc1)c1c(O)ccc2ccccc12` (stereo unspecified), 5.6 µM.
Regarding `C=CCC(c1ccccc1F)c1c(O)ccc2ccccc12` (stereo unspecified), the IC50 worked out at 9.7 µM.

Test system in the next experiment: not listed separately
As to the kind of experiment: Cytotoxicity against Homo sapiens (human) MDA231 cells after 48 hr by MTT assay. The experiment is classed as functional, cell-based. As to conditions: MDA-MB-231, 48 h.
For the compound `COc1cccc2c1C(=O)c1c(O)c3c(c(O)c1C2=O)C[C@@](O)(C(=O)CO)C[C@@H]3O[C@H]1C[C@H](N)[C@H](O)[C@H](C)O1` [DOXORUBICIN], the half-inhibitory concentration (IC50) was under 1 µM.
On the same count and under the same terms, in the case of `C=CCC(c1cccc(F)c1)c1c(O)ccc2ccccc12` (stereo unspecified) it was 9.1 µM; in that of `C=CCC(c1ccc(F)cc1)c1c(O)ccc2ccccc12` (stereo unspecified), under 1 µM.
`C=CCC(c1ccc(Cl)cc1)c1c(O)ccc2ccccc12` (stereo unspecified) had an IC50 of 7.6 µM.
Take `C=CCC(c1ccccc1)c1c(O)ccc2ccccc12` (stereo unspecified): the half-inhibitory concentration (IC50) turned out to be 33 µM.
The same measure, in the same setting: for `C=CCC(c1ccc(C(C)C)cc1)c1c(O)ccc2ccccc12` (stereo unspecified) the value was 16.5 µM; for `C=CCC(c1ccc(C)cc1)c1c(O)ccc2ccccc12` (stereo unspecified), 6 µM.
Compound `C=CCC(c1ccccc1F)c1c(O)ccc2ccccc12` (stereo unspecified) came in with an IC50 of 6.6 µM.
